{"source": "patent US7846956B2", "about": "“Malononitrile compound as pesticides” (Sumitomo Chemical Company, Limited, priority 2004, dated 2010)", "format_in_all_cases": "in vivo", "key": {"[1]": {"test_system": "Culex pipiens pallens", "test": "Experimental Example 5: larvae in treated water, death rate of Culex pipiens pallens", "conditions": "24 h, read-out: death rate of the pest", "method": "Preparations of the present compounds (1), (2), (4), (5), (6), (8), (9), (11), (12), (13), (14), (15), (16), (17), (18), (19), (21), (22), (23), (24), (25), (26), (27), (31), (33), (34), (35), (36), (37), (38), (39), (40), (42), (43), (47), (48), (50), (52), (53), (54), (62), (64), (65), (66), (67), (68) and (70) obtained according to Formulation Example 5 were diluted with water so that the active ingredient concentration was 500 ppm to prepare experimental pesticidal solutions.\n0.7 ml of the experimental pesticidal solution was added to 100 mL of ion-exchanged water (active ingredient concentration: 3.5 ppm). Into the solution, 20 last-instar larvae of Culex pipiens pallens were released. After one day, the surviving number was examined and the death rate of the pest was calculated."}, "[2]": {"test_system": "Musca domestics", "test": "Experimental Example 3: filter paper test with sucrose bait, death rate of Musca domestics", "conditions": "read-out: death rate of the pest", "method": "Preparations of the present compounds (1), (2), (3), (4), (5), (6), (8), (9), (10), (11), (12), (13), (14), (15), (16), (17), (18), (19), (21), (22), (23), (24), (25), (26), (27), (31), (34), (35), (36), (37), (38), (39), (40), (42), (47), (50), (52), (54), (66), (67) and (68) obtained according to Formulation Example 5 were diluted with water so that the active ingredient concentration was 500 ppm to prepare experimental pesticidal solutions.\n(§1) A filter paper having a diameter of 5.5 cm was spread on the bottom of a polyethylene cup having a diameter of 5.5 cm and 0.7 ml of the experimental pesticidal solution was added dropwise onto the filter paper. As a bait 30 mg of sucrose was uniformly placed on the filter paper. Into the polyethylene cup, 10 female Musca domestics imagoes were released and the cup was sealed with a lid. After 24 hours, the number of surviving Musca domestics was examined and the death rate of the pest was calculated."}, "[3]": {"test_system": "Blattalla germanica", "test": "Experimental Example 4: filter paper test with sucrose bait, death rate of Blattalla germanica", "conditions": "144 h; 500 ppm active ingredient, 0.7 ml on filter paper; two male imagoes; after 6 days", "method": "Preparations of the present compounds (2), (4), (5), (6), (8), (9), (11), (12), (13), (15), (17), (18), (19), (21), (24), (25), (26), (27), (35), (36), (37), (38), (40), (41), (42), (47), (50), (52), (54), (62), (64), (65), (66) and (68) obtained according to Formulation Example 5 were diluted with water so that the active ingredient concentration was 500 ppm to prepare experimental pesticidal solutions.\nas §1, with “two male Blattalla gexmanica images” for “10 female Musca domestics imagoes”, “6 days,” for “24 hours,”, “Blattalla germanica” for “Musca domestics”"}, "[4]": {"conditions": "500 ppm active ingredient, 0.7 ml on filter paper, 10 female imagoes, after 24 hours"}, "[5]": {"conditions": "active ingredient concentration 3.5 ppm in water, 20 last-instar larvae, after one day"}}, "note": "Like-named read-outs stand apart in the source and are kept apart here."}
{"compound": "CC(O[Si](C)(C)C(C)(C)C)c1cc(CC(C#N)(C#N)CCC(F)(F)F)no1", "note": "(centres unmarked) [present compound (48)]", "values": [{"measurement": "pest or weed control at 3.5 ppm", "setting": "[1]", "result": "≥ 95", "unit": "%"}]}
{"compound": "CC(C)(F)c1cc(CC(C#N)(C#N)CCC(F)(F)F)no1", "note": "[present compound (54)]", "values": [{"measurement": "pest or weed control at 500 ppm", "setting": "[2]; [4]", "result": "≥ 90", "unit": "%"}, {"measurement": "pest or weed control at 500 ppm", "setting": "[3]", "result": 100, "unit": "%"}, {"measurement": "pest or weed control at 3.5 ppm", "setting": "[1]; [5]", "result": "≥ 95", "unit": "%"}]}
{"compound": "CC1(c2nc(CC(C#N)(C#N)CCC(F)(F)F)no2)CC1", "note": "[present compound (25)]", "values": [{"measurement": "pest or weed control at 500 ppm", "setting": "[2]; [4]", "result": "≥ 90", "unit": "%"}, {"measurement": "pest or weed control at 500 ppm", "setting": "[3]", "result": 100, "unit": "%"}, {"measurement": "pest or weed control at 3.5 ppm", "setting": "[1]; [5]", "result": "≥ 95", "unit": "%"}]}
{"compound": "N#CC(C#N)(CCC(F)(F)F)Cc1cnc(Cl)s1", "note": "[present compound (18)]", "values": [{"measurement": "pest or weed control at 500 ppm", "setting": "[2]; [4]", "result": "≥ 90", "unit": "%"}, {"measurement": "pest or weed control at 500 ppm", "setting": "[3]", "result": 100, "unit": "%"}, {"measurement": "pest or weed control at 3.5 ppm", "setting": "[1]; [5]", "result": "≥ 95", "unit": "%"}]}
{"compound": "CC(C)(C)Cc1nc(CC(C#N)(C#N)CCC(F)(F)F)no1", "note": "[present compound (26)]", "values": [{"measurement": "pest or weed control at 500 ppm", "setting": "[2]; [4]", "result": "≥ 90", "unit": "%"}, {"measurement": "pest or weed control at 500 ppm", "setting": "[3]", "result": 100, "unit": "%"}, {"measurement": "pest or weed control at 3.5 ppm", "setting": "[1]; [5]", "result": "≥ 95", "unit": "%"}]}
{"compound": "N#CC(C#N)(CCC(F)(F)F)Cc1cc(C(F)(F)C(F)(F)C(F)(F)F)on1", "note": "[present compound (39)]", "values": [{"measurement": "pest or weed control at 500 ppm", "setting": "[2]; 24 h", "result": "≥ 90", "unit": "%"}, {"measurement": "pest or weed control at 3.5 ppm", "setting": "[1]", "result": "≥ 95", "unit": "%"}]}
{"compound": "C#CCOC(C)(C)c1cc(CC(C#N)(C#N)CCC(F)(F)F)no1", "note": "[present compound (67)]", "values": [{"measurement": "pest or weed control at 500 ppm", "setting": "[2]; [4]", "result": "≥ 90", "unit": "%"}, {"measurement": "pest or weed control at 3.5 ppm", "setting": "[1]; [5]", "result": "≥ 95", "unit": "%"}]}
{"compound": "C#CCOc1nc(CC(C#N)(C#N)CCC(F)(F)F)cs1", "note": "[present compound (14)]", "values": [{"measurement": "pest or weed control at 500 ppm", "setting": "[2]; [4]", "result": "≥ 90", "unit": "%"}, {"measurement": "pest or weed control at 3.5 ppm", "setting": "[1]; [5]", "result": "≥ 95", "unit": "%"}]}
{"compound": "CCc1ncc(CC(C#N)(C#N)CCC(F)(F)F)s1", "note": "[present compound (16)]", "values": [{"measurement": "pest or weed control at 500 ppm", "setting": "[2]; [4]", "result": "≥ 90", "unit": "%"}, {"measurement": "pest or weed control at 3.5 ppm", "setting": "[1]; [5]", "result": "≥ 95", "unit": "%"}]}
{"compound": "CCc1nc(CC(C#N)(C#N)CCC(F)(F)F)no1", "note": "[present compound (23)]", "values": [{"measurement": "pest or weed control at 500 ppm", "setting": "[2]; [4]", "result": "≥ 90", "unit": "%"}, {"measurement": "pest or weed control at 3.5 ppm", "setting": "[1]; [5]", "result": "≥ 95", "unit": "%"}]}
{"compound": "C#CCn1cc(CC(C#N)(C#N)CCC(F)(F)F)cn1", "note": "[present compound (31)]", "values": [{"measurement": "pest or weed control at 500 ppm", "setting": "[2]; [4]", "result": "≥ 90", "unit": "%"}, {"measurement": "pest or weed control at 3.5 ppm", "setting": "[1]; [5]", "result": "≥ 95", "unit": "%"}]}
{"compound": "CCC(c1cc(C(C)(C)O)on1)C(C#N)(C#N)CCC(F)(F)F", "note": "(centres unmarked) [present compound (64)]", "values": [{"measurement": "pest or weed control at 500 ppm", "setting": "[3]", "result": 100, "unit": "%"}, {"measurement": "pest or weed control at 3.5 ppm", "setting": "[1]; [5]", "result": "≥ 95", "unit": "%"}]}
{"compound": "CC(C)C(c1cc(C(C)(C)O)on1)C(C#N)(C#N)CCC(F)(F)F", "note": "(centres unmarked) [present compound (65)]", "values": [{"measurement": "pest or weed control at 500 ppm", "setting": "[3]", "result": 100, "unit": "%"}, {"measurement": "pest or weed control at 3.5 ppm", "setting": "[1]; [5]", "result": "≥ 95", "unit": "%"}]}
{"compound": "CC(C)(C)c1cc(CC(C#N)(C#N)CCC(F)(F)F)[nH]n1", "note": "[present compound (1)]", "values": [{"measurement": "pest or weed control at 500 ppm", "setting": "[2]; [4]", "result": "≥ 90", "unit": "%"}, {"measurement": "pest or weed control at 3.5 ppm", "setting": "[1]; [5]", "result": "≥ 95", "unit": "%"}]}
{"compound": "CC(C)(O)c1cc(CC(C#N)(C#N)CCC(F)(F)F)no1", "note": "[present compound (53)]", "values": [{"measurement": "pest or weed control at 3.5 ppm", "setting": "[1]; [5]", "result": "≥ 95", "unit": "%"}]}
{"compound": "CC(C)c1cc(C(C)C(C#N)(C#N)CCC(F)(F)F)no1", "note": "(centres unmarked) [present compound (41)]", "values": [{"measurement": "pest or weed control at 500 ppm", "setting": "[3]", "result": 100, "unit": "%"}]}
{"compound": "CC(C)(C)n1ncc(CC(C#N)(C#N)CCC(F)(F)F)c1-n1cccc1", "note": "[present compound (34)]", "values": [{"measurement": "pest or weed control at 500 ppm", "setting": "[2]; [4]", "result": "≥ 90", "unit": "%"}, {"measurement": "pest or weed control at 3.5 ppm", "setting": "[1]; [5]", "result": "≥ 95", "unit": "%"}]}
{"compound": "CC(C)(C)n1cc(CC(C#N)(C#N)C2C=CCCC2)cn1", "note": "(centres unmarked) [present compound (33)]", "values": [{"measurement": "pest or weed control at 3.5 ppm", "setting": "[1]; [5]", "result": "≥ 95", "unit": "%"}]}
{"compound": "CC(C)(C)[Si](C)(C)OCc1cc(CC(C#N)(C#N)CCC(F)(F)F)no1", "note": "[present compound (43), [(5-(t-butyldimethylsilanyloxymethyl)isoxazol-3-yl)methyl](3,3,3-trifluoropropyl)malononitrile]", "values": [{"measurement": "pest or weed control at 3.5 ppm", "setting": "[1]", "result": "≥ 95", "unit": "%"}]}
{"compound": "CC(c1cc(C(C)(C)O)on1)C(C#N)(C#N)CCC(F)(F)F", "note": "(centres unmarked) [present compound (62)]", "values": [{"measurement": "pest or weed control at 500 ppm", "setting": "[3]", "result": 100, "unit": "%"}, {"measurement": "pest or weed control at 3.5 ppm", "setting": "[1]; [5]", "result": "≥ 95", "unit": "%"}]}
{"compound": "CC[S+]([O-])c1ncc(CC(C#N)(C#N)CCC(F)(F)F)n1C", "note": "(centres unmarked) [present compound (70)]", "values": [{"measurement": "pest or weed control at 3.5 ppm", "setting": "[1]; [5]", "result": "≥ 95", "unit": "%"}]}
{"compound": "CC(C)(C)c1nnc(CC(C#N)(C#N)CCC(F)(F)F)o1", "note": "[present compound (22)]", "values": [{"measurement": "pest or weed control at 500 ppm", "setting": "[2]; [4]", "result": "≥ 90", "unit": "%"}, {"measurement": "pest or weed control at 3.5 ppm", "setting": "[1]; [5]", "result": "≥ 95", "unit": "%"}]}
{"compound": "CC(C)(C)c1cc(CC(C#N)(C#N)CCC(F)(F)F)n(CC(F)(F)F)n1", "note": "[present compound (3)]", "values": [{"measurement": "pest or weed control at 500 ppm", "setting": "[2]; [4]", "result": "≥ 90", "unit": "%"}]}
{"compound": "N#CC(C#N)(CCC(F)(F)F)Cc1cscn1", "note": "[present compound (10)]", "values": [{"measurement": "pest or weed control at 500 ppm", "setting": "[2]; [4]", "result": "≥ 90", "unit": "%"}]}
